Results taken from US7754852B2, “Natriuretic polypeptides” (Mayo Foundation for Medical Education and Research, priority 2007, dated 2010).
Where a SMILES comes first, the peptide text is derived from it. Bridges are numbered along the chain shown (N, C = ends). Where no end group is shown, it is not given here.

Experiments:
normal anesthetized dogs [1] = assay: In vivo renal perfusion pressure, i.v. infusion at 14.14 pmol/kg/minute for 75 minutes; parameters: species or system dog; conditions: RPP estimated by MAP−RAP
Protocol: Studies were conducted to determine the in vivo actions of CNP, CU-NP and URO on renal perfusion pressure (RPP, as estimated by MAP-RAP), as RPP is a key determinant of renal function. Given the GFR-enhancing action of CU-NP, in vitro studies also were done to test the hypothesis that CU-NP (unlike CNP) also activates NPR-A, a potent renal acting NP receptor. Equimolar doses of CU-NP, human CNP, or human URO were intravenously infused at 14.14 pmol/kg/minute into 17 normal anesthetized dogs for 75 minutes. RPP was assessed at baseline and at 60 minutes of infusion. Data are expressed as mean±SEM. Clearances were measured from the 16th to the 45th minute and from the 46th to the 75th minute following initiation of peptide infusion. Within each group, 2-tailed paired t-test was used to compare RPP at 60 minutes of peptide infusion vs. baseline. Comparisons between groups were made by two-way ANOVA followed by Bonferroni post-test.

normal anesthetized dogs [2] = assay: Renal, cardiovascular and neurohumoral effects of i.v. infusion at 50 ng/kg/minute for 75 minutes in normal anesthetized dogs; format: in vivo, dog
Protocol: CU-NP or CNP polypeptide was intravenously infused into normal anesthetized dogs at 50 ng/kg/minute for 75 minutes. Blood and urine samples were collected pre-infusion (pre-I), at 30 and 60 minutes of infusion, and post-infusion (post-I). Inulin clearance was used for assessment of glomerular filtration rate (GFR). The lithium clearance technique was used for measurement of proximal and distal fractional reabsorption of Na^+ (PFRNa and DFRNa, respectively). Comparisons at the latter three time points versus pre-I were made. Student's t-test was used when comparing results for two time points, whereas repeated measures ANOVA was used to compare four time points.

[3] = tested on: human aortic endothelial cells (HAEC); assay: cGMP response in HAEC in the absence or presence of NPR-B antibody; format: cell-based; conditions: 10^−6 M, 10 minutes
Protocol: (§1) cGMP responses to the 3 peptides also were assessed in glomeruli isolated from canine kidneys upon harvest, in the presence or absence of an NPR-A antagonist, […] (1 μM), or an NPR-B antagonist, […] (1 μM), or both antagonists added sequentially (A71915 followed by […], 1 μM final concentration for both). To confirm the involvement of NPR-B in the cGMP response to CU-NP, additional experiments were conducted using human aortic endothelial cells (HAEC). Cyclic GMP response was determined by incubating CU-NP (10^-6 M) for 10 minutes in the absence or presence of an antibody to the ligand-binding domain of NPR-B. In vitro data (mean±SEM) were analyzed by one-way ANOVA followed by Bonferroni's post-test. Statistical significance was defined as P<0.05. GraphPad Prism 4 (GraphPad Software, San Diego, Calif.) was used for statistical analyses.

[4] = tested on: isolated canine glomeruli; assay: cGMP stimulation in isolated canine glomeruli; format: cell-based; conditions: 10^−5 M
Protocol: Experiments were conducted to determine whether CU-NP directly stimulates cGMP in isolated glomeruli, and to compare the cGMP-activating actions of CU-NP with CNP, URO, and CNP-C, which consisted of the full-length 22-AA of CNP with a duplicate of the N-terminus fused in the C-terminal position. Glomeruli were isolated upon harvest of normal canine kidneys. CU-NP, CNP, URO, and CNP-C (10^−5 M) were incubated with glomeruli vs. control. Cyclic GMP was measured by RIA, with correction for protein levels. CU-NP and URO elicited greater cGMP responses than respective controls (P<0.01), but without difference between groups. CU-NP and URO stimulated greater cGMP responses vs. CNP and vs. CNP-C (P<0.001).

normal anesthetized dogs [5] = assay: Hemoconcentrating effects (hematocrit) of i.v. infusion at 14 pmol/kg/minute in normal anesthetized dogs; format: in vivo, dog
Protocol: Three human NPs (BNP, CNP, URO, and CU-NP were studied to evaluate their effects on vascular permeability as manifested by an increase in hematocrit. Normal anesthetized dogs received i.v. infusions of BNP (n=7), CNP (n=6), URO (n=5), or CU-NP (n=6) at 14 pmol/kg/minute. Blood was collected in EDTA tubes on ice and centrifuged. Data are reported for base-line and at 60 minutes of infusion. In addition to increasing hematocrit (Table 5), CU-NP reduced PCW pressure in vivo (baseline 6±0.9 mmHg, 60 minutes 3±0.9 mmHg; P<0.05). Thus, hemoconcentrating effects of CU-NP may contribute to its cardiac-unloading actions in vivo.

[6] = tested on: isolated canine glomeruli; assay: cGMP response in isolated canine glomeruli with or without NPR-A antagonist and NPR-B antagonist; format: cell-based; conditions: 10^−5 M, no antagonist
Protocol: as §1

normal anesthetized dogs [7] = assay: Cardiorenal function in normal anesthetized dogs, consecutive i.v. infusions of 10, 50 and 100 ng/kg/minute; format: in vivo, dog
Protocol: Cardiorenal function was assessed in three normal anesthetized dogs. […] Tubular Na^+ reabsorption and GFR were assessed by clearance of Li^+ and inulin, respectively. Neurohormones were quantified by radioimmunoassays. Data were analyzed by repeated measures ANOVA followed by Dunnett's test.

[8] = 60 minutes of i.v. infusion at 14.14 pmol/kg/minute
[9] = 30 minutes of infusion, 50 ng/kg/minute i.v.
[10] = 60 minutes of infusion, 50 ng/kg/minute i.v.
[11] = 60 min of i.v. infusion at 14 pmol/kg/minute

## CNP: human CNP, mature natriuretic polypeptide of 22 amino acids
Normal anesthetized dogs [1]; [8]
  RPP (mean ± SEM): 123 ± 8 mmHg
Normal anesthetized dogs [1]; Pre-I
  RPP (mean ± SEM): 120 ± 4 mmHg
Normal anesthetized dogs [2]; [9]
  DFRNa+: 98 ± 0.8%
  GFR: 42 ± 4 mL/min
  Na^+ excretion: 56 ± 21 μEq/min
  PFRNa+: 67 ± 3%
  Plasma cGMP: 11 ± 1 pmol/mL
  Renal generation of cGMP: 452 ± 202 pmol/min
  Urinary cGMP excretion: 1119 ± 102 pmol/min
  Urine flow: 0.3 ± 0.06 mL/min
Normal anesthetized dogs [2]; [10]
  DFRNa+: 98 ± 0.5%
  GFR: 39 ± 3 mL/min
  Na^+ excretion: 71 ± 8 μEq/min
  PFRNa+: 51 ± 7 %
  Plasma cGMP: 12 ± 1 pmol/mL
  Renal generation of cGMP: 603 ± 199 pmol/min
  Urinary cGMP excretion: 1338 ± 81 pmol/min
  Urine flow: 0.4 ± 0.02 mL/min
Normal anesthetized dogs [2]; post-infusion
  DFRNa+: 99 ± 0.2%
  GFR: 44 ± 3 mL/min
  Na^+ excretion: 30 ± 8 μEq/min
  PFRNa+: 68 ± 3 %
  Plasma cGMP: 12 ± 1 pmol/mL
  Renal generation of cGMP: 582 ± 91 pmol/min
  Urinary cGMP excretion: 1090 ± 76 pmol/min
  Urine flow: 0.3 ± 0.04 mL/min
Normal anesthetized dogs [2]; pre-infusion
  DFRNa+: 99 ± 0.5%
  GFR: 38 ± 4 mL/min
  Na^+ excretion: 16 ± 6 μEq/min
  PFRNa+: 83 ± 3%
  Plasma cGMP: 8 ± 1 pmol/mL
  Renal generation of cGMP: 491 ± 65 pmol/min
  Urinary cGMP excretion: 830 ± 74 pmol/min
  Urine flow: 0.1 ± 0.02 mL/min
[3]; in the presence of the NPR-B antibody (1:100)
  cGMP: 0.08 ± 0.01 pmol/mL
[3]; no antibody
  cGMP: 0.17 ± 0.04 pmol/mL
[4]
  cGMP (mean ± SEM): 0.0019 ± 0.0005 fmol/µg
Normal anesthetized dogs [5]; [11]
  Hematocrit (mean ± SEM): 37 ± 1%
Normal anesthetized dogs [5]; Baseline
  Hematocrit (mean ± SEM): 36 ± 1%

## URO: human urodilatin, natriuretic polypeptide (TAPRSLRRSSCFGGRMDRIGAQSGLGCNSFRY; ends and bridges not checked; cysteine pairing not given here; UniProt P01160 120-151, looked up)
Normal anesthetized dogs [1]; [8]
  RPP (mean ± SEM): 119 ± 4 mmHg
Normal anesthetized dogs [1]; Pre-I
  RPP (mean ± SEM): 127 ± 4 mmHg
[4]
  cGMP (mean ± SEM): 0.69 ± 0.07 fmol/µg
Normal anesthetized dogs [5]; [11]
  Hematocrit (mean ± SEM): 40 ± 1 %
Normal anesthetized dogs [5]; Baseline
  Hematocrit (mean ± SEM): 37 ± 1%
[6]
  cGMP: 0.54 ± 0.10 fmol/µg

## BNP: human NP (natriuretic peptide) BNP
Normal anesthetized dogs [5]; [11]
  Hematocrit (mean ± SEM): 40 ± 2 %
Normal anesthetized dogs [5]; Baseline
  Hematocrit (mean ± SEM): 36 ± 1%

## CC[C@H](C)[C@@H]1NC(=O)[C@H](CCCNC(=N)N)NC(=O)[C@H](CC(=O)O)NC(=O)[C@H](CC(C)C)NC(=O)[C@H](CCCCN)NC(=O)[C@H](CC(C)C)NC(=O)CNC(=O)[C@H](Cc2ccccc2)NC(=O)[C@@H](NC(=O)[C@H](CO)NC(=O)[C@H](CO)NC(=O)[C@H](CCCNC(=N)N)NC(=O)[C@H](CCCNC(=N)N)NC(=O)[C@H](CC(C)C)NC(=O)[C@H](CO)NC(=O)[C@H](CCCNC(=N)N)NC(=O)[C@@H]2CCCN2C(=O)[C@H](C)NC(=O)[C@@H](N)[C@@H](C)O)CSSC[C@@H](C(=O)N[C@@H](CC(N)=O)C(=O)N[C@@H](CO)C(=O)N[C@@H](Cc2ccccc2)C(=O)N[C@@H](CCCNC(=N)N)C(=O)N[C@@H](Cc2ccc(O)cc2)C(=O)O)NC(=O)CNC(=O)[C@H](CC(C)C)NC(=O)CNC(=O)[C@H](CO)NC(=O)[C@H](CCSC)NC(=O)[C@H](CO)NC(=O)CNC1=O [CU-NP] (H-TAPRSLRRSSCFGLKLDRIGSMSGLGCNSFRY-OH; disulfide 11-27)
Normal anesthetized dogs [7]; end of infusion at 100 ng/kg/minute
  QTc interval: 329 ± 15 ms
Normal anesthetized dogs [7]; pre-infusion
  QTc interval: 323 ± 6 ms
